Tests used:
[1] = system: PC-3; conditions: published NCI60 panel data, ref 1 (Coibamide A), 2 (Apratoxin A), 3 (Ipomoeassin F); cited from earlier work
[2] = system: RXF 393; conditions: published NCI60 panel data, ref 1 (Coibamide A), 2 (Apratoxin A), 3 (Ipomoeassin F); cited from earlier work
[3] = system: TK-10; conditions: published NCI60 panel data, ref 1 (Coibamide A), 2 (Apratoxin A), 3 (Ipomoeassin F); cited from earlier work
[4] = system: HT29; conditions: published NCI60 panel data, ref 1 (Coibamide A), 2 (Apratoxin A), 3 (Ipomoeassin F); cited from earlier work
[5] = system: SNB-75; conditions: published NCI60 panel data, ref 1 (Coibamide A), 2 (Apratoxin A), 3 (Ipomoeassin F); cited from earlier work
[6] = system: SK-MEL-5; conditions: published NCI60 panel data, ref 1 (Coibamide A), 2 (Apratoxin A), 3 (Ipomoeassin F); cited from earlier work
[7] = system: COLO 205; conditions: published NCI60 panel data, ref 1 (Coibamide A), 2 (Apratoxin A), 3 (Ipomoeassin F); cited from earlier work
[8] = system: HCT-116; conditions: published NCI60 panel data, ref 1 (Coibamide A), 2 (Apratoxin A), 3 (Ipomoeassin F); cited from earlier work
[9] = system: HOP-92; conditions: published NCI60 panel data, ref 1 (Coibamide A), 2 (Apratoxin A), 3 (Ipomoeassin F); cited from earlier work
[10] = system: SK-OV-3; conditions: published NCI60 panel data, ref 1 (Coibamide A), 2 (Apratoxin A), 3 (Ipomoeassin F); cited from earlier work
[11] = system: MDA-MB-231/ATCC; conditions: published NCI60 panel data, ref 1 (Coibamide A), 2 (Apratoxin A), 3 (Ipomoeassin F); cited from earlier work
[12] = system: RPMI-8226; conditions: published NCI60 panel data, ref 1 (Coibamide A), 2 (Apratoxin A), 3 (Ipomoeassin F); cited from earlier work
[13] = system: KM12; conditions: published NCI60 panel data, ref 1 (Coibamide A), 2 (Apratoxin A), 3 (Ipomoeassin F); cited from earlier work
[14] = system: HCT-15; conditions: published NCI60 panel data, ref 1 (Coibamide A), 2 (Apratoxin A), 3 (Ipomoeassin F); cited from earlier work
[15] = system: OVCAR4; conditions: published NCI60 panel data, ref 1 (Coibamide A), 2 (Apratoxin A), 3 (Ipomoeassin F); cited from earlier work
[16] = system: MALME-3M; conditions: published NCI60 panel data, ref 1 (Coibamide A), 2 (Apratoxin A), 3 (Ipomoeassin F); cited from earlier work
[17] = system: LOX IMVI; conditions: published NCI60 panel data, ref 1 (Coibamide A), 2 (Apratoxin A), 3 (Ipomoeassin F); cited from earlier work
[18] = system: BT-549; conditions: published NCI60 panel data, ref 1 (Coibamide A), 2 (Apratoxin A), 3 (Ipomoeassin F); cited from earlier work
[19] = system: A498; conditions: published NCI60 panel data, ref 1 (Coibamide A), 2 (Apratoxin A), 3 (Ipomoeassin F); cited from earlier work
[20] = system: OVCAR5; conditions: published NCI60 panel data, ref 1 (Coibamide A), 2 (Apratoxin A), 3 (Ipomoeassin F); cited from earlier work
[21] = system: EKVX; conditions: published NCI60 panel data, ref 1 (Coibamide A), 2 (Apratoxin A), 3 (Ipomoeassin F); cited from earlier work
[22] = system: HL-60 (TB); conditions: published NCI60 panel data; cited from earlier work
[23] = system: SF-268; conditions: published NCI60 panel data, ref 1 (Coibamide A), 2 (Apratoxin A), 3 (Ipomoeassin F); cited from earlier work
[24] = system: SR; conditions: published NCI60 panel data, ref 1 (Coibamide A), 2 (Apratoxin A), 3 (Ipomoeassin F); cited from earlier work
[25] = system: A549/ATCC; conditions: published NCI60 panel data, ref 1 (Coibamide A), 2 (Apratoxin A), 3 (Ipomoeassin F); cited from earlier work
[26] = system: HS 578T; conditions: published NCI60 panel data, ref 1 (Coibamide A), 2 (Apratoxin A), 3 (Ipomoeassin F); cited from earlier work
[27] = system: HCC-2998; conditions: published NCI60 panel data, ref 1 (Coibamide A), 2 (Apratoxin A), 3 (Ipomoeassin F); cited from earlier work
[28] = system: SW-620; conditions: published NCI60 panel data, ref 1 (Coibamide A), 2 (Apratoxin A), 3 (Ipomoeassin F); cited from earlier work
[29] = system: NCI-H226; conditions: published NCI60 panel data, ref 1 (Coibamide A), 2 (Apratoxin A), 3 (Ipomoeassin F); cited from earlier work
[30] = system: SF-539; conditions: published NCI60 panel data, ref 1 (Coibamide A), 2 (Apratoxin A), 3 (Ipomoeassin F); cited from earlier work
[31] = system: UACC-62; conditions: published NCI60 panel data, ref 1 (Coibamide A), 2 (Apratoxin A), 3 (Ipomoeassin F); cited from earlier work
[32] = system: MCF7; conditions: published NCI60 panel data, ref 1 (Coibamide A), 2 (Apratoxin A), 3 (Ipomoeassin F); cited from earlier work
[33] = system: DU-145; conditions: published NCI60 panel data, ref 1 (Coibamide A), 2 (Apratoxin A), 3 (Ipomoeassin F); cited from earlier work
[34] = system: SN12C; conditions: published NCI60 panel data, ref 1 (Coibamide A), 2 (Apratoxin A), 3 (Ipomoeassin F); cited from earlier work
[35] = system: OVCAR3; conditions: published NCI60 panel data, ref 1 (Coibamide A), 2 (Apratoxin A), 3 (Ipomoeassin F); cited from earlier work
[36] = system: HOP-62; conditions: published NCI60 panel data, ref 1 (Coibamide A), 2 (Apratoxin A), 3 (Ipomoeassin F); cited from earlier work
[37] = system: UACC-257; conditions: published NCI60 panel data, ref 1 (Coibamide A), 2 (Apratoxin A), 3 (Ipomoeassin F); cited from earlier work
[38] = system: K-562; conditions: published NCI60 panel data, ref 1 (Coibamide A), 2 (Apratoxin A), 3 (Ipomoeassin F); cited from earlier work
[39] = system: SF-295; conditions: published NCI60 panel data, ref 1 (Coibamide A), 2 (Apratoxin A), 3 (Ipomoeassin F); cited from earlier work
[40] = system: IGROV1; conditions: published NCI60 panel data, ref 1 (Coibamide A), 2 (Apratoxin A), 3 (Ipomoeassin F); cited from earlier work
[41] = system: NCI-H23; conditions: published NCI60 panel data, ref 1 (Coibamide A), 2 (Apratoxin A), 3 (Ipomoeassin F); cited from earlier work
[42] = system: NCI-H460; conditions: published NCI60 panel data, ref 1 (Coibamide A), 2 (Apratoxin A), 3 (Ipomoeassin F); cited from earlier work
[43] = system: 786-0; conditions: published NCI60 panel data, ref 1 (Coibamide A), 2 (Apratoxin A), 3 (Ipomoeassin F); cited from earlier work
[44] = system: M14; conditions: published NCI60 panel data, ref 1 (Coibamide A), 2 (Apratoxin A), 3 (Ipomoeassin F); cited from earlier work
[45] = system: NCI/ADR-RES; conditions: published NCI60 panel data, ref 1 (Coibamide A), 2 (Apratoxin A), 3 (Ipomoeassin F); cited from earlier work
[46] = system: CCRF-CEM; conditions: published NCI60 panel data, ref 1 (Coibamide A), 2 (Apratoxin A), 3 (Ipomoeassin F); cited from earlier work
[47] = system: U251; conditions: published NCI60 panel data, ref 1 (Coibamide A), 2 (Apratoxin A), 3 (Ipomoeassin F); cited from earlier work
[48] = system: UO-31; conditions: published NCI60 panel data, ref 1 (Coibamide A), 2 (Apratoxin A), 3 (Ipomoeassin F); cited from earlier work
[49] = system: SNB-19; conditions: published NCI60 panel data, ref 1 (Coibamide A), 2 (Apratoxin A), 3 (Ipomoeassin F); cited from earlier work
[50] = system: MOLT-4; conditions: published NCI60 panel data, ref 1 (Coibamide A), 2 (Apratoxin A), 3 (Ipomoeassin F); cited from earlier work
[51] = system: SK-MEL-2; conditions: published NCI60 panel data, ref 1 (Coibamide A), 2 (Apratoxin A), 3 (Ipomoeassin F); cited from earlier work
[52] = system: MDA-MB-435; conditions: published NCI60 panel data, ref 1 (Coibamide A), 2 (Apratoxin A), 3 (Ipomoeassin F); cited from earlier work
[53] = system: NCI-H522; conditions: published NCI60 panel data, ref 1 (Coibamide A), 2 (Apratoxin A), 3 (Ipomoeassin F); cited from earlier work
[54] = system: OVCAR8; conditions: published NCI60 panel data, ref 1 (Coibamide A), 2 (Apratoxin A), 3 (Ipomoeassin F); cited from earlier work
[55] = system: NCI-H322M; conditions: published NCI60 panel data, ref 1 (Coibamide A), 2 (Apratoxin A), 3 (Ipomoeassin F); cited from earlier work
[56] = system: SK-MEL-28; conditions: published NCI60 panel data, ref 1 (Coibamide A), 2 (Apratoxin A), 3 (Ipomoeassin F); cited from earlier work
[57] = system: T-47D; conditions: published NCI60 panel data, ref 1 (Coibamide A), 2 (Apratoxin A), 3 (Ipomoeassin F); cited from earlier work
[58] = system: Sec61α; assay: Photoaffinity labeling competition in sheep rough microsomes; type: binding; conditions: SRM with 100 nM Sec61, 30 min with competitor, then 100 nM photo-CbA, UV 10 min, TAMRA in-gel fluorescence
Description: Figure 2 Photo-cross-linking of photo-CbA to Sec61α and CbA stabilization of Sec61 in cells. Photocotransin (CT7) or photocoibamide (pCbA) cross-linking to cells or sheep rough microsomes (SRM). Samples were photolyzed and the covalent adduct detected by click-chemistry to TAMRA-azide reporter and in-gel fluorescence scanning and Western blotting. (A) A431 cell lines were first incubated with CbA or carrier, followed by incubation with photo-CbA, photolysis, and click chemistry. Following SDS PAGE, lysates were queried for in gel fluorescence and subsequently transferred for anti-Sec61α and anti-FLAG Western Blot. Arrows indicate Sec61 (with or without a 10 kDa insert), star indicates nonspecific WB signal, triangle indicates free TAMRA dye within the gel. (B) As in A but in SRMs. […] Heat-treated cell suspensions were snap frozen, lysates cleared by centrifugation, and the soluble fraction analyzed by SDS-PAGE and Western blotting. […] (F) Quantification of immunoblot data shown in E. Sec61α band intensity was normalized to tubulin, and data points were fitted using nonlinear regression analysis.
The photoaffinity labeling and click chemistry with microsomes were done as previously described.[17] […] The labeled proteins were analyzed by SDS-PAGE and in-gel fluorescence. […]

For `C/C=C(\C)C(=O)O[C@@H]1[C@@H](O)[C@@H]2O[C@H]3[C@H](O[C@@H](CCCCC)CCCCCCC(=O)CCC(=O)OC[C@@H](O2)[C@H]1OC(=O)/C=C/c1ccccc1)O[C@H](C)[C@H](OC(C)=O)[C@@H]3O` [IpoF, ipomoeassin F], the GI50 [1] is listed as 10 nM, the GI50 [2] is listed as 10 nM and the GI50 [3] is listed as 15.2 nM. The GI50 [4] was 10 nM, the GI50 [5] was 10 nM and the GI50 [6] was 10 nM. The GI50 [7] was 10 nM, the GI50 [8] was 10 nM and the GI50 [9] was 10 nM. For the same molecule, the GI50 [10] was 38.4 nM, the GI50 [11] was 10 nM and the GI50 [12] was 10 nM. The GI50 [13] was 10 nM, the GI50 [14] was 29.8 nM and the GI50 [15] was 1580 nM. For the same molecule, the GI50 [16] was 57.8 nM, the GI50 [17] was 10 nM and the GI50 [18] was 17.9 nM. The GI50 [19] was 315 nM, the GI50 [20] was 1230 nM and the GI50 [21] was 10 nM. For the same molecule, the GI50 [22] was 49 nM, the GI50 [23] was 115 nM and the GI50 [24] was 14.4 nM. For the same molecule, the GI50 [25] was 10 nM, the GI50 [26] was 10 nM and the GI50 [27] was 1180 nM. For the same molecule, the GI50 [28] was 10 nM, the GI50 [29] was 276 nM and the GI50 [30] was 10 nM. The GI50 [31] was 15.3 nM, the GI50 [32] was 10 nM and the GI50 [33] was 31.9 nM. For the same molecule, the GI50 [34] was 10 nM, the GI50 [35] was 28.3 nM and the GI50 [36] was 10 nM. The GI50 [37] was 11.9 nM, the GI50 [38] was 10 nM and the GI50 [39] was 10 nM. For the same molecule, the GI50 [40] was 26.7 nM, the GI50 [41] was 213 nM and the GI50 [42] was 10 nM. The GI50 [43] was 30.1 nM, the GI50 [44] was 10 nM and the GI50 [45] was 297 nM. For the same molecule, the GI50 [46] was 741 nM, the GI50 [47] was 10 nM and the GI50 [48] was 10 nM. The GI50 [49] was 129 nM, the GI50 [50] was 3420 nM and the GI50 [51] was 445 nM. For the same molecule, the GI50 [52] was 10 nM, the GI50 [53] was 27.9 nM and the GI50 [54] was 117 nM. For the same molecule, the GI50 [55] was 391 nM, the GI50 [56] was 17.5 nM and the GI50 [57] was 10 nM.
For `CC(=C\C=C\C(C)=C\[C@H](O)[C@@H](O)C[C@H](C)O)/C=C(C)/C=C/C(=O)O[C@H]1CCCC(=O)O[C@@H]([C@@H](C)C/C(C)=C/[C@@H](C)[C@H](O)C[C@@H](C)O)C/C=C(\C)C[C@@H]1C` [mycolactone], the “competition of photo-CbA cross-linking to Sec61α” value [58] was “prevented photo-CbA cross-linking in a concentration-dependent manner”.

Reference: publication PMC7497630, “Coibamide A Targets Sec61 to Prevent Biogenesis of Secretory and Membrane Proteins” (ACS Chemical Biology, 2020)
